Laboratory results from patent publication US20150306107A1, “SAA Derivative Compound Restores eNOS And Inhibits Oxidative Stress-Induced A Diseases In Hypoxia” (JANSFAT BIOTECHNOLOGY CO., LTD., priority 2014, published 2015).

Key:
PDE5A = conditions: hypoxia 21 days; % of the normal level; hypoxia 43.8±12.6%
sGCα1 [1] = test: Western blotting of sGCα1 expression in isolated pulmonary artery, short-term hypoxia; assay type: cell-based, rat
Procedure: (§1) In our in vitro short-term experiment, isolated rat pulmonary artery was grown under normoxia (20% O2) or hypoxia (1% O2) at 37° C. for 24 hrs as was previously done (Wu BN, et al. Int J Immunopathol Pharmacol 24:925, 2011). The heart weight and body weight ratio (HW/BW) of the rats treated with one of SPAAX-1, SPAAX-1 RX complex, Sildenafil or Sildenafil RX complex each measured on the 21st hypoxic day. All animal care and the experimental protocols of this study were approved by the Animal Care and Use Committee of the Kaohsiung Medical University. Male Wistar rats (200-250 g), provided by the National Laboratory Animal Breeding and Research Center (Taipei, Taiwan), were housed under constant temperature and controlled illumination. Food and water were available ad libitum.
Whole right lung tissues of hypoxia-treated and untreated rats were isolated and cut into small strips and placed into an extraction buffer (Tris 10 mM, pH 7.0, NaCl 140 mM, PMSF 2 mM, DTT 5 mM, NP-40 0.5%, pepstatin A 0.05 mM and leupeptin 0.2 mM) for protein extraction, and then centrifuged at 12,500 g for 30 min. To measure the expression levels of the proteins, the total proteins were extracted and Western blotting analysis was performed as described previously (Bivalacqua T J, et al., 2013, TJ PLoSONE 8: e68028. doi:10.1371/journal. pone.0068028). […]

hypoxic rats [2] = test: Pulmonary artery wall thickness and muscularization (HE staining) after long-term hypoxia; assay type: in vivo, rat
Procedure: (§2) The right lobes of the rat lungs and heart of six rats from each group were cut and soaked in formalin, dehydrated through graded alcohols, and embedded in paraffin wax. The lung tissue specimens fixed with formalin (4%) were embedded in paraffin for one hour at 4° C., cut into 4-μm-thick sections, and subjected to H&E staining before examination by light microscope. In our histopathological study, we measured the thickening of the medial wall of the small intrapulmonary arteries under an Eclipse TE2000-S (Nikon) microscope. In the heart tissues, the 4-μm-thick paraffin sections were cut from paraffin-embedded tissue blocks and de-paraffinized by immersion in xylene and rehydrated as previously described (Bivalacqua T J, et al., PLoSONE 8: e68028. doi:10.1371/journal. pone.0068028). The slices were then dyed with H&E. After gently rinsing with water, each slide was dehydrated through graded alcohols and finally soaked in xylene twice. The relative cardiac weight of right ventricle (RV)/[left ventricle (LV)+intraventricular septum (S)] ratio (i.e. right heart index) was calculated using right ventricle/left ventricle+septum (RV/LV+S). Measurements were obtained with Histolab software (Microvision Instruments, Evry, France).

VEGF [3] = test: Immunohistochemistry of VEGF in pulmonary artery wall after long-term hypoxia; assay type: in vivo, rat
Procedure: For histological analysis, the rat pulmonary right lung sections or pulmonary artery were fixed in 4% formaldehyde for 1 hour at 4° C. After washing with phosphate buffer saline (PBS), they were sent for paraffin-embedded serial-sections. Serial cross-sections 7 μm thick were obtained from the cross-section of each pulmonary artery. Tissue sections were deparaffinized and rehydrated in an ethanol series. After tissue rehydration, endogenous peroxidase activity was quenched with 3% hydrogen peroxide for 30 minutes, and the sections were gently washed in PBS. Non-specific binding was blocked by incubation with 1% nonimmune bovine serum albumin (BSA) in PBS for 30 minutes at room temperature.
The tissue sections were incubated for 1 hour at room temperature with antibody against VEGF (ab1442, Millipore) or against eNOS (ab5589, Abcam) diluted 1:200 in PBS with 1% BSA. After being washed with PBS, the sections were incubated for 1 hour at room temperature with biotinylated goat antibody against rabbit (Dako, E-0432) and diluted 1:200 in PBS for 30 minutes at room temperature. The reaction was visualized by the addition of 3-3-diaminobenzidine (DAB) in a working solution of DAB substrate kit for peroxidase (vector lab, SK-4100) at room temperature for 5 minutes. The sections were washed in PBS for 10 minutes between each step, and counterstained with haematoxylin. […]

sGCα1 [4] = test: Western blotting of sGCα1 in lung tissue after long-term hypoxia; assay type: in vivo, rat; conditions: hypoxia 21 days; compared to normoxia control
NOx in lung tissue = conditions: 21 days of hypoxia; control group 100%, hypoxia 59.8±3.7%
Procedure: All the rats were maintained on a 12-h light/12-hr dark cycle at 25±1° C. and were provided with food and water ad libitum. The normoxia group was housed in standard normoxic conditions and the other three treated groups were continuously housed in a hypoxic chamber (10% O2) for 21 days, except for a 30-min interval each day when the chamber was cleaned (FIG. 2). During which, a normoxic gas mixture was prepared from compressed air.
Production of NO, represented by its metabolite nitrate+nitrite (NOx), in lung tissue extracts was determined using the Griess method (Chung H H et al, Br J Pharmacol 160: 971, 2010; Vascular Pharmacology 53: 239, 2010). The three step Greiss test converts nitrate (NO3^−) into nitrite (NO2^−), resulting in a total NO2^− concentration from a standard calibration curve. The lung tissue extracts were homogenized, washed with PBS and incubated in a lysis buffer in addition to a protease inhibitor cocktail (Sigma, St. Louis, Mo.) to obtain the extracts of lung proteins. […] The samples were then incubated (25° C, 10 min) with Griess reagent [N-(1-naphthyl)-ethylenediamine: 0.2% (w/v), sulphanilamide: 2% (w/v), solubilized in double-distilled water: 95% and phosphoric acid: 5% (v/v)] and the absorbance measured at 540 nm. […]

ROCK II = test: Western blotting of ROCK II expression in isolated rat pulmonary artery ring, short-term (acute) hypoxia or normoxia; assay type: cell-based
Procedure: as §1
Whole right lung tissues of hypoxia-treated and untreated rats were isolated and cut into small strips and placed into an extraction buffer (Tris 10 mM, pH 7.0, NaCl 140 mM, PMSF 2 mM, DTT 5 mM, NP-40 0.5%, pepstatin A 0.05 mM and leupeptin 0.2 mM) for protein extraction, and then centrifuged at 12,500 g for 30 min. To measure the expression levels of the proteins, the total proteins were extracted and Western blotting analysis was performed as described previously (Bivalacqua T J, et al., 2013, TJ PLoSONE 8: e68028. doi:10.1371/journal. pone.0068028). Briefly, the protein extract was boiled to a ratio of 4:1 with a sample buffer (Tris 100 mM, pH 6.8, glycerol 20%, SDS 4% and bromophenol blue 0.2%). Electrophoresis was performed using 10% SDS-polyacrylamide gel (2 hr, 100 V, 40 mA, […] protein per lane). Separated proteins were transferred to PVDF membranes treated with 5% fat-free milk powder to block the nonspecific IgGs (90 min, 100 V) and incubated for one hour with a specific protein antibody. The blot was then incubated with anti-mouse or anti-goat IgG linked to alkaline phosphatase (1:1000) for 1 hr. Immunoreactive bands were visualized using horseradish peroxidase-conjugated secondary antibodies and subsequent electrochemiluminescence (ECL) detection (GE Healthcare Bio-Sciences Corp., Piscataway, N.J., U.S.A.). Mouse or rabbit monoclonal antibody of eNOS (Upstate, N.Y., U.S.A.), sGCα (Sigma-Adrich, CA, U.S.A., sGCβ (Santa Cruz, Calif., U.S.A.), PDE-5A (BD Tansduction, San Jose, Calif., U.S.A.), PKG (Calbiochem, San Diego, Calif., U.S.A.) ROCKII (Upstate, N.Y., U.S.A.), RhoA (Santa Cruze, Calif., U.S.A.) and the loading control protein β-actin (Sigma-Adrich, MO, U.S.A.) were used in our Western blot analysis.
The Western blotting analysis measurements were performed as per lung tissue.

hypoxic rats [5] = test: Right ventricular hypertrophy (RV/LV+S, right heart index) after long-term hypoxia; assay type: in vivo, rat
Procedure: as §2

eNOS [6] = test: Western blotting of eNOS expression in isolated rat pulmonary artery ring, short-term (acute) hypoxia or normoxia; assay type: cell-based
Summary of the method: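 Isolated rat (male Wistar) pulmonary artery kept under normoxia (20% O2) or hypoxia (1% O2) at 37° C. for 24 hrs. Protein extracted, resolved on 10% SDS-PAGE ([…]), blotted to PVDF, probed with specific antibodies and ECL-detected, β-actin as loading control.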

eNOS [7] = test: Western blotting of eNOS in lung tissue after long-term hypoxia; assay type: in vivo, rat; conditions: hypoxia 21 days; compared to normoxia control
VEGF [8] = test: Western blotting of VEGF in lung tissue after long-term hypoxia; assay type: in vivo, rat; conditions: hypoxia 21 days; hypoxia 168.9±24.6%
[9] = system: reactive oxygen species (ROS) of lung tissues; conditions: long-term hypoxia
Procedure: In our in vivo hypoxic experiments, 10-week old male Wistar rats were equally divided into four groups: a normoxia group, a hypoxia group, a hypoxia+SPAAX-1 or SPAAX-1 RX complex group, and a hypoxia+Sildenafil or Sildenafil RX complex group. All the rats were maintained on a 12-h light/12-hr dark cycle at 25±1° C. and were provided with food and water ad libitum. The normoxia group was housed in standard normoxic conditions and the other three treated groups were continuously housed in a hypoxic chamber (10% O2) for 21 days, except for a 30-min interval each day when the chamber was cleaned (FIG. 2). During which, a normoxic gas mixture was prepared from compressed air.
Pulmonary ROS was measured using 2′-7′-dichloro-fluorescein (H2DCF-DA, Molecular Probe, USA). Briefly, 10 μl of lung tissue extract was diluted 100-fold with cold PBS and labelled with 5 μmol/L 2′-7′-dichlorofluorescein, and the mixture was incubated at 37° C. for 30 minutes and put in a centrifuge (1000 rpm) for 5 min. Fluorescence was measured at 485 nm excitation and 530 nm emission to determine the concentration of H2O2 (FLUOstar Galaxy, Germany).

[10] = normoxia for 24 hrs, 10 μm, versus non-treated controls

Cn1c(=O)c2c(ncn2CCN2CCN(c3ccccc3Cl)CC2)n(C)c1=O.O=C1O[C@H]([C@@H](O)CO)C(O)=C1O [SPAAX-1 ascorbate complex, 7-[2-[4-(2-chlorobenzene)piperazinyl]ethyl]-1,3-dimethylxanthine.ascorbic acid]
PDE5A expression in lung tissue (PDE5A): 76.9±4.9%
SGC-a in hypoxia (sGCα1 [1]): neither SPAAX-1 ascorbate complex nor Sildenafil ascorbate complex significantly affected
Small pulmonary arterial morphology (<150 μm) (hypoxic rats [2]; hypoxia 21 days, 5 mg/kg/day): highly improved
hypoxia-induced pulmonary artery wall thickness (hypoxic rats [2]; hypoxia 21 days, 5 mg/kg/day, hypoxia 165.8±5.4%): inhibited
muscularizations of distal pulmonary artery (HE staining) (hypoxic rats [2]; hypoxic rats, versus vehicle only): significantly lower
VEGF immunostaining reactivity of pulmonary artery (VEGF [3]): reduced
sGCα1 expression in lung tissue (sGCα1 [4]): 40.4±8.4%
levels of NOx in lung tissue (NOx in lung tissue): 86.3±17.3%
expression of ROCK II in isolated hypoxic pulmonary artery (ROCK II; hypoxia for 24 hrs, versus control level in normoxia, hypoxia 180±10.2%): 140±9.0%
Expression of ROCK II in isolated pulmonary artery ring (ROCK II; [10]): 48.2±5.5%
thickness of Right ventricular (hypoxic rats [5]; compared to the hypoxia state): reduced
right heart index, RV/(LV+S) weight ratio (hypoxic rats [5]; hypoxia 21 days, relative to normoxia rats, hypoxia 184.6±0.7%): 117.4±2.6%
eNOS in isolated hypoxic pulmonary artery (eNOS [6]; hypoxia for 24 hrs, versus control level in normoxia, hypoxia 60±8.3%): 45±3.0%
eNOS in acute hypoxia (eNOS [6]; isolated pulmonary artery, acute hypoxia): restored
expression of eNOS in isolated pulmonary artery ring (eNOS [6]; [10]): 117.9±9.1%
eNOS expression in lung tissue (eNOS [7]): 139.7±16.9%
VEGF expression in lung tissue (VEGF [8]): 120.9±22.2%
hypoxia-induced increase of dichlorofluorescein (ROS of lung tissues) [9]: reduced
